Source: patent publication US20170190705A1, “Compositions and Methods for Inhibiting BMP” (THE BRIGHAM AND WOMAN'S HOSPITAL, INC., priority 2014, published 2017)

Key:
Assay type in all cases: biochemical
ARK5 = target: T1, ARK5 (Homo sapiens, UniProt O60285); assay: Kinome profiling ARK5; settings: read-out: Inhibitory activity ARK5; for inhibition at 0.1 µM: 100 nM
T1 sequence (O60285 1-661): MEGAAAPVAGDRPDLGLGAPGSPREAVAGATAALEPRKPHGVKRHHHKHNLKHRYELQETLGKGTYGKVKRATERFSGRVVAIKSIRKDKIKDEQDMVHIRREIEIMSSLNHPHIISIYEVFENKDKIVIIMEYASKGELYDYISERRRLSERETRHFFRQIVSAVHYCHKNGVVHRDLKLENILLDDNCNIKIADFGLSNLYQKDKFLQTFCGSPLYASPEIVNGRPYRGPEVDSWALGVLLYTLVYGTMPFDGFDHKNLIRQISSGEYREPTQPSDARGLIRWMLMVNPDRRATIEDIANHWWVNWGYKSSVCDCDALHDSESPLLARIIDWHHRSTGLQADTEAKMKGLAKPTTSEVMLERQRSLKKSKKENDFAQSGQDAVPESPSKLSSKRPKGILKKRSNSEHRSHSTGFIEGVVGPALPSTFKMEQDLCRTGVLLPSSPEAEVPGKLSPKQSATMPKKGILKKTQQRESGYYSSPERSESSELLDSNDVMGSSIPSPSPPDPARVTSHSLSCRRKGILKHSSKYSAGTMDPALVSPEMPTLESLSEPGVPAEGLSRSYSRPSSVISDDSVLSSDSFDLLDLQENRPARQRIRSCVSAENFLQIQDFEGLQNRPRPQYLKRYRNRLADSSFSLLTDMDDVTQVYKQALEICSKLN
Procedure: (§1) . The kinome-wide selectivity was determined following the methods previously reported by Mohedas et al., ACS Chem Biol 2013, 8, 1291-1302 and Sanvitale et al., PLoS One 2013, 8, e62721.

FLT-3 = target: T2, FLT-3 (Homo sapiens, UniProt P36888); assay: Kinome profiling FLT-3; settings: read-out: Inhibitory activity FLT-3; for inhibition at 0.1 µM: 100 nM
T2 sequence (P36888 27-993): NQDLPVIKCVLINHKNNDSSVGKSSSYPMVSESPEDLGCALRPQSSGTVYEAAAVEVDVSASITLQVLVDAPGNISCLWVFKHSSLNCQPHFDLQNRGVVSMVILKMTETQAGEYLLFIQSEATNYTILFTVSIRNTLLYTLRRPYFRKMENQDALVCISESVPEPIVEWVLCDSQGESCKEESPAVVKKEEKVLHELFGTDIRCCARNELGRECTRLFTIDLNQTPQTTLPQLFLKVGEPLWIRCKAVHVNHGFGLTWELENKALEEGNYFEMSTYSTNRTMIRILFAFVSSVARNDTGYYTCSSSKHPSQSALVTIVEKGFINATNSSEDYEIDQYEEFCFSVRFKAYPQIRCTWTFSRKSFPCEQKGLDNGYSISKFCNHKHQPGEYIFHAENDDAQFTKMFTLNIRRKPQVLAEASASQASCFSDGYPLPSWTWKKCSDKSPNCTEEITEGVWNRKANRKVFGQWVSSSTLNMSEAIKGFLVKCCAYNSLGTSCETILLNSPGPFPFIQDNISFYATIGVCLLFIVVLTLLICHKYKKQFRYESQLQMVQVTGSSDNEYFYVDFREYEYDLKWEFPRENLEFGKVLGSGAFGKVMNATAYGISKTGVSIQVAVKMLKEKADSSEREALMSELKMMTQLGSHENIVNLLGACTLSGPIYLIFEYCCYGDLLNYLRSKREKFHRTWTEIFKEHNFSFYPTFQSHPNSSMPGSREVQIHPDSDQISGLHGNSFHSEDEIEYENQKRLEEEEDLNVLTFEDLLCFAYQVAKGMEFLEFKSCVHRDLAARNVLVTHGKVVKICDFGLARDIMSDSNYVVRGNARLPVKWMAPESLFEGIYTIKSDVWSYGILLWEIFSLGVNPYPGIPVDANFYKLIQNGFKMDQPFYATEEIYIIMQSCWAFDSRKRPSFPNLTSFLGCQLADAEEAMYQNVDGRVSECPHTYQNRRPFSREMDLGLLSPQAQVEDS
Procedure: as §1

EPHA3 = target: T3, EPHA3 (Homo sapiens, UniProt P29320); assay: Kinome profiling EPHA3; settings: read-out: Inhibitory activity EPHA3; for inhibition at 0.1 µM: 100 nM
T3 sequence (P29320 21-983): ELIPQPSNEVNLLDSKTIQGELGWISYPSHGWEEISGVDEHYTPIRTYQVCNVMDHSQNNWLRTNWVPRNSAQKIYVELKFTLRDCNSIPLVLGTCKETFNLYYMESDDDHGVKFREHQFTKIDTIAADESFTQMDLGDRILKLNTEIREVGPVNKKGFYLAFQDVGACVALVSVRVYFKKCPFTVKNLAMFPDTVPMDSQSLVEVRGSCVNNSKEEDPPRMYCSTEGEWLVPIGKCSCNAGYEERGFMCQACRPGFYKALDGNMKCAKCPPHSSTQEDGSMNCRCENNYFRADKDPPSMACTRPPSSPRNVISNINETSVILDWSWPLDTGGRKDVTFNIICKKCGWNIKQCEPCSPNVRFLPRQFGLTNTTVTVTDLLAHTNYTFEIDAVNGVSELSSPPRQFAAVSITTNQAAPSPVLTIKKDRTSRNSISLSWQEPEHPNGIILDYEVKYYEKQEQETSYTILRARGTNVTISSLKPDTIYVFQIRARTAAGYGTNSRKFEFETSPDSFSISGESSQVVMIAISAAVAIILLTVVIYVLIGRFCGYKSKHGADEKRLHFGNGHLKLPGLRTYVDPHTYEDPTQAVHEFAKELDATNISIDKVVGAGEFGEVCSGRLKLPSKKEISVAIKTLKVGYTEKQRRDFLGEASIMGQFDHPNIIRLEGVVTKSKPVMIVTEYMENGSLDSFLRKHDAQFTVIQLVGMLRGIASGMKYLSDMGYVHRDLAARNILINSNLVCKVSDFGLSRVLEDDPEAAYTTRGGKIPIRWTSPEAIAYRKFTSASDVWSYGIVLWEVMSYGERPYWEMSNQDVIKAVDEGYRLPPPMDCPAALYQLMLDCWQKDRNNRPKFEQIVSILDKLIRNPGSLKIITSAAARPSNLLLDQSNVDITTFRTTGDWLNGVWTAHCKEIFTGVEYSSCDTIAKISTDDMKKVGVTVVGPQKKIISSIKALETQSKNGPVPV
Procedure: as §1

RSK4 = RSK4 (Homo sapiens, UniProt Q9UK32); assay: Kinome profiling RSK4; settings: read-out: Inhibitory activity RSK4; for inhibition at 0.1 µM: 100 nM
Chain of RSK4 (Q9UK32 whole entry): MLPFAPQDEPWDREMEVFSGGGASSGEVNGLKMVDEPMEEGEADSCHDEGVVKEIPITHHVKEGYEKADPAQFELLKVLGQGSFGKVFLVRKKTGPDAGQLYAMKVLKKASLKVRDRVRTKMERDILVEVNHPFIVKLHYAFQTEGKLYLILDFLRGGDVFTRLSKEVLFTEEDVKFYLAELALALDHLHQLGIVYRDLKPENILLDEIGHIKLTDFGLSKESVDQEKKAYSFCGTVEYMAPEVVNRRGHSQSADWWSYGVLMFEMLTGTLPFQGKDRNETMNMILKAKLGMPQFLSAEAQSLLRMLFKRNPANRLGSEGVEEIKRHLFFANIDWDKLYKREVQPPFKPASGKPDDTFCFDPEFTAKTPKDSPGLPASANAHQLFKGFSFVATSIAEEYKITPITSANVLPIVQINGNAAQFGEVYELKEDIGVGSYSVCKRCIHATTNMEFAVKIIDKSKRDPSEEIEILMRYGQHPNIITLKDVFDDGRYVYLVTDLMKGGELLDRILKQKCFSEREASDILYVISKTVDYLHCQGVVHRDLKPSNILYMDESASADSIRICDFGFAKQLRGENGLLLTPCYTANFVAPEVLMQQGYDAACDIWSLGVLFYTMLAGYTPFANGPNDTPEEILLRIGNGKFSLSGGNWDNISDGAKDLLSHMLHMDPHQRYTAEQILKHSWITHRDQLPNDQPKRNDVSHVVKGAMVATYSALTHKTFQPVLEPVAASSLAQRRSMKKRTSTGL
Procedure: as §1

FMS = FMS (Homo sapiens, UniProt P07333); assay: Kinome profiling FMS; settings: read-out: Inhibitory activity FMS; for inhibition at 0.1 µM: 100 nM
Chain of FMS (P07333 20-972): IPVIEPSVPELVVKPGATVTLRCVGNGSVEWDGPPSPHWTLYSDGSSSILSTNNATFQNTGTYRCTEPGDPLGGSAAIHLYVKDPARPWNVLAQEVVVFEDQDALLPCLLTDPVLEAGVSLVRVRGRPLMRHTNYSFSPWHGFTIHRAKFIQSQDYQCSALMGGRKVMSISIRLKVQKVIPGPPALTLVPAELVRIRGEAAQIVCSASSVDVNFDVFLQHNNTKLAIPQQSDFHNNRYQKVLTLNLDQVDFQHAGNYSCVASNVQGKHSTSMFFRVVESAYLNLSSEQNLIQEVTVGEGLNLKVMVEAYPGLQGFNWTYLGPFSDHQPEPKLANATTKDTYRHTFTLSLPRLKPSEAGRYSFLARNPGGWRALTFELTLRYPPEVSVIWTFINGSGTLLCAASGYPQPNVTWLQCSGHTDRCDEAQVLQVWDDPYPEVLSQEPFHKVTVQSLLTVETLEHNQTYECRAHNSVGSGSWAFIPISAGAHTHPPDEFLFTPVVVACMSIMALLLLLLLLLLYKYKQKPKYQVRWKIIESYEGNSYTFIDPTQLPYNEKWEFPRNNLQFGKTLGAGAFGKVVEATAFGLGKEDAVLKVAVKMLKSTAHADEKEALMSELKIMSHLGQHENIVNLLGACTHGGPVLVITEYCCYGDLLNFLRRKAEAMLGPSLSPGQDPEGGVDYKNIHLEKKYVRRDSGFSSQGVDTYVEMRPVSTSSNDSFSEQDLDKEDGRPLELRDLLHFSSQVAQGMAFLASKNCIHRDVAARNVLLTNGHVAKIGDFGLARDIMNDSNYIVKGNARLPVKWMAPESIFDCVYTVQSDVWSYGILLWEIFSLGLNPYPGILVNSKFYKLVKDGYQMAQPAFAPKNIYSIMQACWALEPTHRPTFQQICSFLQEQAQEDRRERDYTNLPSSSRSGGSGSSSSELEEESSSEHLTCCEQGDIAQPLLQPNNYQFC
Procedure: as §1

| Structure (SMILES) | inhibition at 0.1 µM (ARK5) | inhibition at 1 µM (ARK5) | inhibition at 0.1 µM (FLT-3) | inhibition at 1 µM (FLT-3) | inhibition at 0.1 µM (EPHA3) | inhibition at 1 µM (EPHA3) | inhibition at 0.1 µM (RSK4) | inhibition at 1 µM (RSK4) | inhibition at 0.1 µM (FMS) | inhibition at 1 µM (FMS) |
| --- | --- | --- | --- | --- | --- | --- | --- | --- | --- | --- |
| COc1cc(-c2cc(-c3ccc(N4CCNCC4)cc3)cnc2C)cc(OC)c1OC [Compound 10, 1-(4-(6-methyl-5-(3,4,5-trimethoxyphenyl)pyridin-3-yl)phenyl)piperazine] | 1% | 1% | 3% | 18% | 2% | 3% | 1% | 1% | 5% | 33% |
| COc1cc(-c2cc(-c3ccc(N4CCNCC4)cc3)cnc2N)cc(OC)c1OC [Compound 15, 5-(4-(piperazin-1-yl)phenyl)-3-(3,4,5-trimethoxyphenyl)pyridin-2-amine] | 2% | 8% | 1% | 5% | 8% | 31% | 1% | 2% | 23% | 65% |
